pIC50: −log10 of the molar value.
Legend:
[1] = test system: Klebsiella pneumoniae; experiment: Inhibition of Klebsiella pneumoniae KP1081 NDM-1 assessed as minimum concentration of compound required to reduce the MIC of biapenem to 1 ug/ml
[2] = test system: Escherichia coli; experiment: Inhibition of Escherichia coli ECM6625 SHV-5 assessed as minimum concentration of compound needed to reduce the MIC of aztreonam to 4 ug/ml
[3] = biological target: Trypsin (Homo sapiens, UniProt P07477+P07478+P35030); experiment: Inhibition of mammalian trypsin (unknown origin) using N-Bz-R-AMC as substrate preincubated for 10 mins followed by substrate addition measured after 30 mins; format: protein assay
[4] = Inhibition of mammalian elastase (unknown origin) using Suc-AAPA-pNA as substrate preincubated for 10 mins followed by substrate addition measured after 30 mins; design: species or system Homo sapiens
[5] = biological target: Dipeptidyl peptidase 8 (Homo sapiens, UniProt Q6V1X1); experiment: Inhibition of mammalian DPP8 (unknown origin) using Lys-Pro-AMC as substrate preincubated for 10 mins followed by substrate addition measured after 30 mins
[6] = AUC in rat at 1000 mg/kg, po administered via gavage by HPLC/MS analysis; format: ADME, organism-based; conditions: in vivo
[7] = Clearance in rat at 300 mg/kg, iv administered as infusion for 0.5 hrs by HPLC/MS analysis; format: ADME, organism-based; conditions: in vivo
[8] = Half life in rat at 100 mg/kg, iv administered as infusion for 0.5 hrs by HPLC/MS analysis; format: ADME, organism-based; conditions: in vivo
[9] = Half life in rat at 100 mg/kg, po administered via gavage by HPLC/MS analysis; format: ADME, organism-based; conditions: in vivo
[10] = test system: Klebsiella pneumoniae; experiment: Potentiation of meropenem-induced bacteriostatic activity against carbapenem-resistant Klebsiella pneumoniae KP1244 harboring KPC-3, SHV-11, and SHV-12 infected in Swiss-Webster mouse model of neutropenic thigh infection assessed as log change in bacterial count in thigh at 1 mg/kg, ip administered at 2 hrs interval for 24 hrs starting from 2 hr post infection and measured post last dose (reference value: 0.62 log10CFU); format: functional
[11] = test system: Enterobacteriaceae; experiment: Inhibition of OXA-48 in carbapenem-resistant Enterobacteriaceae assessed as potentiation of ceftolozane-induced antibacterial activity by measuring ceftolozane MIC50 at 8 ug/ml by broth microdilution method (Rvb > 32 ug/ml)
[12] = test system: Enterobacteriaceae; experiment: Inhibition of NDM/VIM in carbapenem-resistant Enterobacteriaceae assessed as potentiation of ceftolozane-induced antibacterial activity by measuring ceftolozane MIC50 at 8 ug/ml by broth microdilution method (Rvb > 32 ug/ml)
[13] = test system: Enterobacterales; experiment: Potentiation of meropenem-induced antibacterial activity against Enterobacterales assessed as meropenem MIC90 at 8 ug/ml by broth microdilution method (Rvb > 32 ug/ml); format: functional
[14] = test system: Enterobacteriaceae; experiment: Inhibition of NDM/VIM in carbapenem-resistant Enterobacteriaceae assessed as potentiation of meropenem-induced antibacterial activity by measuring meropenem MIC90 at 8 ug/ml by broth microdilution method (Rvb > 32 ug/ml)

Chain of Dipeptidyl peptidase 8 (Q6V1X1 whole entry): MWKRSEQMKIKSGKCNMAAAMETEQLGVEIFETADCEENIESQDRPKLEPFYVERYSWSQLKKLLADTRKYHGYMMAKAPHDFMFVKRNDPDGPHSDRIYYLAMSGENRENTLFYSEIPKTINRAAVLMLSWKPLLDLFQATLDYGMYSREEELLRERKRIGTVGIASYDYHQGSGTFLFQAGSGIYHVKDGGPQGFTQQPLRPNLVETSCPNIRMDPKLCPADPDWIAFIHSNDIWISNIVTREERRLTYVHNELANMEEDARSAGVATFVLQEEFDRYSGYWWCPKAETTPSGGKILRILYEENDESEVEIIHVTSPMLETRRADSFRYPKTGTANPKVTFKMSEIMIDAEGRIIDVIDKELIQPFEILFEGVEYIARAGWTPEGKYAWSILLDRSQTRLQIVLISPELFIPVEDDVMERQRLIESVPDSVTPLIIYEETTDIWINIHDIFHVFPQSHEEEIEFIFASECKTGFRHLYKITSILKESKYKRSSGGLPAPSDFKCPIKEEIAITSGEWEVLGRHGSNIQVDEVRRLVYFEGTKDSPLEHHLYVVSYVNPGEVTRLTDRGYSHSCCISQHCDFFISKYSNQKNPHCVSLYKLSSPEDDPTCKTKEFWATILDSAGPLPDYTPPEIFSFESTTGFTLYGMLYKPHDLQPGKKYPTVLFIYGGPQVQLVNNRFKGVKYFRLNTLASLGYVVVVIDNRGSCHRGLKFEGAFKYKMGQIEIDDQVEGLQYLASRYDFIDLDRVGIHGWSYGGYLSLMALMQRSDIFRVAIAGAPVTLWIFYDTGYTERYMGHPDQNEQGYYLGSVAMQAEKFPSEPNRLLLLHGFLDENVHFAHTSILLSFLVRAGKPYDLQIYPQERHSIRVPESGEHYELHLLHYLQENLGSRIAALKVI

Question: Which results are given for `O=C(O)c1c(F)ccc2c1OB(O)[C@@H]1C[C@H]21` [XERUBORBACTAM]?
Answer: MEC [1]: 0.6 µg/mL; MEC [2]: 0.3 µg/mL; IC50 [3]: > 1000 µM; pIC50 [4]: 4.00; pIC50 [5]: < 3.00; AUC [6]: 504 µg·h/mL; clearance [7]: 8.17 mL/min/kg; half-life [8]: 1.46 h; half-life [9]: 3.23 h; Activity [10]: -0.42 log10CFU; MIC50 [11]: 0.25 µg/mL; MIC50 [12]: 16 µg/mL; MIC90 [13]: 0.125 µg/mL; MIC90 [14]: 2 µg/mL

Source: ChEMBL document CHEMBL4616632, “Discovery of Cyclic Boronic Acid QPX7728, an Ultrabroad-Spectrum Inhibitor of Serine and Metallo-β-lactamases” (J Med Chem, 2020)
